The values below come from patent US8299040B2, “Methods for treating cancer targeting transglutaminase” (Board of Regents, The University of Texas System, priority 2006, dated 2012).

Structures are written as SMILES.

The target in assay [1] is T1, PKCδ (Homo sapiens, UniProt Q05655).
T1 construct: endogenous in cells; host or cells: MDA-Panc28
As to the kind of experiment: PKCδ protein expression in MDA-Panc28 cells (western blot). The class given is cell-based. To be noted: 48 h. Background: A western blot detects proteins with antibodies after separation by electrophoresis.
Description: (A) Cells at 80% confluence were treated with 1 μM, 2 μM or 4 μM rottlerin. After 48 h of treatment, the cells were lysed and cell lysates were fractionated by sodium dodecyl sulfate polyacrylamide gel electrophoresis (SDS-PAGE) and transferred onto nitrocellulose membrane to determine PKCδ and TG2 protein expression by western blot analysis. […] Experiments were repeated at least three times.
After treatment, the cells were collected and centrifuged, and whole-cell lysates were obtained using a lysis buffer. Total protein concentration was determined using a DC protein assay kit (Bio-Rad, Hercules, Calif., USA). […] Aliquots containing 30 μg of total protein from each sample were subjected to sodium dodecyl sulfate-polyacrylamide gel electrophoresis (SDS-PAGE) with a 4-20% gradient and electrotransferred to nitrocellulose membranes. The membranes were blocked with 5% dry milk in tris-buffered saline-tween 20 (TBST), probed with primary antibodies diluted in TBST containing 2.5% dry milk and incubated at 4° C. overnight. […] Mouse anti-β-actin and donkey anti-mouse secondary antibody were purchased from Sigma Chemical (St. Louis, Mo., USA) so that β-actin expression could be monitored to ensure equal loading of proteins. […] The blots were visualized with a Fluor Chem 8900 imager and quantified by a densitometer using the Alpha Imager application program (Alpha Innotech). […]

Assay [2] concerns TG2. As to the kind of experiment: TG2 transcript level in MDA-Panc28 cells (RT-PCR). The class given is cell-based, human. The method, then:
Cells were collected for isolation of total RNA. Total cellular RNA was isolated with Trizol reagent (Invitrogen/Life Technologies, Carlsbad, Calif., USA), and cDNA was obtained from 5 μg of total RNA using a Superscript II RT kit (Invitrogen/Life Technologies). Briefly, 5 μl of the total 20 μl of reverse-transcribed product was used for PCR in 1×PCR buffer containing 1.5 mM MgCl2, 250 μM dNTPs, 0.5 units of Taq polymerase (Invitrogen/Life Technologies), and 100 ng of TG2 primer (primer 1,5′-[…]-3′; primer II, 5′-[…] GAGCAGG-3′) or β-actin-specific primer (Sigma-Genosys, Houston, Tex., USA). Thirty cycles were used for PCR analysis. The reaction products were analyzed on a 2% agarose gel containing ethidium bromide, and cDNA synthesis was verified by detection of the β-actin transcript, which was used as an internal control.

For assay [3], the system named is Bx-PC3, MIAPaCa, MDA-Panc28, Panc1 and Capan-2 cells. As to the kind of experiment: Growth inhibition in pancreatic cancer cell lines. The class given is cell-based, human. The method, then: (A) Different pancreatic cancer cell lines were treated with rottlerin (4 μM) for 48 h, and viable cells were detected by proliferation assay using Alamar Blue staining. Bars represent growth inhibition after normalizing untreated cells to 100%. (B) Growth of the indicated cell lines after treatment with rottlerin (4 μM) for 48 and 96 h.
(§1) Pancreatic cell lines MDA-Panc28, Capan-2, Bx-PC3, Panc1 and MIAPaCa were provided by Dr. Shrikant Reddy (M. D. Anderson Cancer Center). MDA-Panc28 and Bx-PC3 cell lines were maintained in RPMI-1640 medium supplemented with 10% fetal calf serum. Panc1 and MIAPaCa cell lines and Capan-2 cells were maintained in DMEM and McCoy's 5A, respectively. All media were supplemented with 10% fetal calf serum. For the cell proliferation experiments, cells were seeded at a density of 1-2×10^5 cells in T-25 tissue culture flasks. Twenty-four hours after the seeding, cells were treated with various concentrations of rottlerin for the indicated periods of time. Adherent cells were collected by trypsinization, and cell numbers were determined using a Neubauer cell counting chamber. All experiments were replicated at least two times.

Assay [4] deals with MDA-Panc28 cells. The experiment in a line: Growth inhibition in MDA-Panc28 cells. The class given is cell-based. The settings on record: Homo sapiens, MDA-Panc-28; 4 μM for 48 h; read-out: inhibition in cell growth. The method, then: as §1
Assay [5] relates to MDA-Panc28 cells. As to the kind of experiment: Apoptosis in MDA-Panc28 cells (sub-G1 FACS, PARP cleavage). The class given is cell-based, human. The method, then: PARP cleavage positive cell lysate was used as a positive control. (C) Morphological changes after treatment with rottlerin. Microphotographs were taken using a phase-contrast microscope (300× magnification). Left panel, untreated cells at 48 h of treatment; center panel, cells treated for 48 h, and right panel, cells treated for 96 h.

The subject of assay [6] is MDA-Panc28 cells. The experiment in a line: Acidic vesicular organelles / autophagy by acridine orange FACS. To be noted: 48 h, flow cytometry; control cells 8%. The class given is cell-based, human. The method, then: To detect and quantify acidic vesicular organelles, cells were stained with acridine orange as described previously. The number of acridine orange-positive cells was determined by fluorescence-activated cell sorting (FACS) analysis. Cell morphology was examined using phase-contrast and fluorescence microscopy (Nikon, Melville, N.Y., USA) with the cells remaining in their culture flasks.
Exponentially growing untreated MDA-Panc28 cells were plated 24 h before transfection. Plated cells were transfected with double-stranded siRNA targeting TG2 mRNA and control (non-silencing) siRNA (all from Qiagen, Venlo, Netherlands) and/or the green fluorescent protein (GFP) and microtubule-associated protein 1 light chain 3 (LC3) fusion vector (GFP-LC3) using the Qiagen transfection reagent according to the manufacturer's protocol. Two siRNA sequences targeting TG2 were designed using siRNA-designing software (Qiagen). PKCδ siRNA was obtained from Santa Cruz Biotechnology (Santa Cruz, Calif., USA). Untransfected cells and non-silencing control siRNA-transfected cells were used as negative controls. After treatment, the cells were harvested for western blot analysis or FACS analysis to determine whether autophagy had occurred.

The subject of assay [7] is mTOR. The experiment in a line: mTOR pathway phosphorylation in MDA-Panc28 cells (western blot). It counts as cell-based, human. The method, then: (A) Phosphorylated mTOR was detected after 48 h of treatment with various doses of rottlerin, cells were subjected to western blot analysis. Phosphorylation of mTOR was inhibited in a dose-dependent manner. (B) MDA-Panc28 cells were treated with a specific mTOR inhibitor, rapamycin (at either 20 nM or 100 nM), TG2 siRNA or left untreated.
After treatment, the cells were collected and centrifuged, and whole-cell lysates were obtained using a lysis buffer. Total protein concentration was determined using a DC protein assay kit (Bio-Rad, Hercules, Calif., USA). Rottlerin and mTOR inhibitor (rapamycin) were purchased from Calbiochem (La Jolla, Calif., USA). Aliquots containing 30 μg of total protein from each sample were subjected to sodium dodecyl sulfate-polyacrylamide gel electrophoresis (SDS-PAGE) with a 4-20% gradient and electrotransferred to nitrocellulose membranes. […] Mouse anti-β-actin and donkey anti-mouse secondary antibody were purchased from Sigma Chemical (St. Louis, Mo., USA) so that β-actin expression could be monitored to ensure equal loading of proteins. […] The blots were visualized with a Fluor Chem 8900 imager and quantified by a densitometer using the Alpha Imager application program (Alpha Innotech). […]

For assay [8], the system named is Beclin 1. The experiment in a line: Beclin 1 expression in MDA-Panc28 cells. It counts as cell-based, human. The settings on record: MDA-Panc28, data not shown.

T1 sequence (Q05655 whole entry): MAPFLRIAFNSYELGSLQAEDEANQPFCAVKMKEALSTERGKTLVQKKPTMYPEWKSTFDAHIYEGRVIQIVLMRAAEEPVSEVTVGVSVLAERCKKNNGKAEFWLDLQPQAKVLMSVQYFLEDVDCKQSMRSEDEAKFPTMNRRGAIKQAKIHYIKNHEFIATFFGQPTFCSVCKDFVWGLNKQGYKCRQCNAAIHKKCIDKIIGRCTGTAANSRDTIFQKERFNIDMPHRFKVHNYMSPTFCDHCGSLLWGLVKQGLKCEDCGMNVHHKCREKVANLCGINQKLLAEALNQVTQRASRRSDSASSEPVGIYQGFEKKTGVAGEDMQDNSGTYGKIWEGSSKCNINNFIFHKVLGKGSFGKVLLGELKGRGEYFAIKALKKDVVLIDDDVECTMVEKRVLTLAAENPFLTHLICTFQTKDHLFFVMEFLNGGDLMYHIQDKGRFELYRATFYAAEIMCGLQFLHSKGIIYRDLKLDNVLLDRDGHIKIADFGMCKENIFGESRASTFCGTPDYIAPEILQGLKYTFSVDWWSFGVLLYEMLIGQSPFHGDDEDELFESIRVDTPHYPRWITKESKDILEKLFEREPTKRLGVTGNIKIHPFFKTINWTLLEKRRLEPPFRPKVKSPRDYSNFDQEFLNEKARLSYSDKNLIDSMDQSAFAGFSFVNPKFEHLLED

For orientation: inhibition means the share of the control response that was lost under treatment. For `CC(=O)c1c(O)c(C)c(O)c(Cc2c(O)c3c(c(C(=O)/C=C/c4ccccc4)c2O)OC(C)(C)C=C3)c1O` [rottlerin], the figures for the “inhibition of PKCδ protein expression” value in assay [1] (2 μM) and in assay [1] (4 μM) were 72% and 94%, respectively. The “effect on TG2 expression at the level of transcription” value in assay [2] is “inhibitory effect”. Also, the growth inhibition entry in assay [3] (4 μM for 48 h, five cell lines) was “induced growth inhibition in all five cell lines tested”. For the same compound, the “time course of growth inhibition” value in assay [3] (4 μM, 48 and 96 h, MDA-Panc28, Bx-PC3, MIAPaCa) was “time-dependent inhibition in cell growth of all three”. In assay [4], the inhibition at 4 µM was 49%. Further, the “apoptosis (accumulation in sub-G1 phase)” value in assay [5] (4 μM for 48 h, FACS) was “failed to promote any apoptosis”. In assay [5] (Western blot), the PARP cleavage entry was “failed to show any poly ADP-ribose polymerase (PARP) cleavage”. For the same compound, the “percentage of red fluorescein-positive cells (acidic vesicular organelles)” value in assay [6] is listed as 64%. In assay [7] (MDA-Panc28, 48 h), the “phosphorylated mTOR (p-mTOR)” value is given as “downregulated phosphorylated mTOR (p-mTOR)”. Further, the p-p70S6K entry in assay [7] (MDA-Panc28, data not shown) is listed as “downregulated”. In addition, the “Beclin 1 expression” value in assay [8] is recorded as “Expression levels did not change”.
